Source: ChEMBL document CHEMBL2074535, “Differential interactions of cytochalasins with P-glycoprotein” (Oncol Res, 1995)

What was measured:
[1] = molecular target: T1, ATP-dependent translocase ABCB1 (Homo sapiens, UniProt P08183); test: TP_TRANSPORTER: increase in Vinblastine intracellular accumulation (Vinblastine: 0.01-0.02 uM, Cytochalasine E: 10 uM) in MCF-7/ADR cells; format: functional, cell-based; conditions: nci/adr-res
[2] = molecular target: T1, ATP-dependent translocase ABCB1; test: TP_TRANSPORTER: ATP hydrolysis in membranes from MCF/ADR cells; format: functional, cell membranes, Membrane
[3] = molecular target: T1, ATP-dependent translocase ABCB1; test: TP_TRANSPORTER: increase in Vinblastine intracellular accumulation (Vinblastine: 0.01-0.02 uM, Dihydrocytochalasin B: 10 uM) in MCF-7/ADR cells; format: functional, cell-based; conditions: nci/adr-res

T1 sequence (P08183 whole entry): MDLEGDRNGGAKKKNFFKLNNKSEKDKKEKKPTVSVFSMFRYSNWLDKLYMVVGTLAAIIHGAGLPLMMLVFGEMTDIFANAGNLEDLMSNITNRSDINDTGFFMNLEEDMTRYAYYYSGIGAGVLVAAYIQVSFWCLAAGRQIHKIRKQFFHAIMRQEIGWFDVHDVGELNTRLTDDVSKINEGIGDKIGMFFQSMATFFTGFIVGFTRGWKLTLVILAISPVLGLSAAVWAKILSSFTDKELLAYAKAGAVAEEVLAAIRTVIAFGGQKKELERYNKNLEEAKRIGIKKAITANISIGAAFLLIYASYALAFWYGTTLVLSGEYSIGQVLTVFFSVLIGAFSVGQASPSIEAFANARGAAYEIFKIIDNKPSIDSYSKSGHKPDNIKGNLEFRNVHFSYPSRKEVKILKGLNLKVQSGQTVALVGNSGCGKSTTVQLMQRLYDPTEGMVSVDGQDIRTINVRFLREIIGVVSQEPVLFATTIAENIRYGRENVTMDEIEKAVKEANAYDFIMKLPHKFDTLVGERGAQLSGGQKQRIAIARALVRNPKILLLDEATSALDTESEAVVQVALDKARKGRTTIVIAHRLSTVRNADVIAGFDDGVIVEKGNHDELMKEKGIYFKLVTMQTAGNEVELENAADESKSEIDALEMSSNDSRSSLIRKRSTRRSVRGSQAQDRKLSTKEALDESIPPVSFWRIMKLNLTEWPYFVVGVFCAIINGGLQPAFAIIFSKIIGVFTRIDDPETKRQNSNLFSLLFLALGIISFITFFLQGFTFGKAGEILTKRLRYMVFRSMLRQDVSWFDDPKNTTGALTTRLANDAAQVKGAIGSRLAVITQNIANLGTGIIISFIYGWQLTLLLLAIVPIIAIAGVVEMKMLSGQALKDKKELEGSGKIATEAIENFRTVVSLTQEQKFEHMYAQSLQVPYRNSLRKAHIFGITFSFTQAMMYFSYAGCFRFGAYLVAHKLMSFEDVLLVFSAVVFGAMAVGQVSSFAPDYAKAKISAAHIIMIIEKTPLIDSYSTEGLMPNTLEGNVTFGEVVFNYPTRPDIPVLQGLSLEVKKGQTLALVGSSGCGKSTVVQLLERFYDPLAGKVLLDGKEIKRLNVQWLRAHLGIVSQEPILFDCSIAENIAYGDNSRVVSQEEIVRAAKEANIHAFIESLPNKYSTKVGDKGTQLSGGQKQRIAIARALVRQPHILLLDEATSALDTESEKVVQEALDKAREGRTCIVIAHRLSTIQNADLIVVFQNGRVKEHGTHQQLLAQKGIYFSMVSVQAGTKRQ

Activity [2]	Activity [3] [%]	SMILES	Activity [1] [%]
		C[C@H]1C/C=C/[C@H]2[C@@H]3O[C@]3(C)[C@@H](C)[C@H]3[C@H](Cc4ccccc4)NC(=O)[C@]32OC(=O)O/C=C/[C@@](C)(O)C1=O [CYTOCHALASIN E]	190
substrate [+]	257	C=C1[C@@H](C)[C@H]2[C@H](Cc3ccccc3)NC(=O)[C@]23OC(=O)CC[C@H](O)CCC[C@@H](C)C/C=C/[C@H]3[C@@H]1O [DIHYDROCYTOCHALASIN B]	
